“Also recorded” adds a separate entry of the source.
What was measured:
[1] = Incubation of Compound A with Control Insect Microsomes and NADPH-generating system; assay type: in vitro ADME; settings: Compound A 50 μM, 120 min, Control Insect Microsomes, FIG. 3
Experimental: Incubation mixtures contained cytochrome P450 (1 nmol/mL for human liver microsomes or 0.2 nmol/mL for CYP3A4), β-NADP^+ (1 mM), glucose-6-phosphate (5 mM), glucose-6-phosphate dehydrogenase (1.5 units/mL) and 3 mM magnesium chloride in 0.5 mL of 50 mM potassium phosphate buffer (pH 7.4). Prior to the addition of drug, incubation mixtures were pre-incubated for 3 min at about 37° C. […] Boiled human liver microsomes and incubations without NADPH served as negative control. A discussion of HPLC is provided in “HPLC in Pharmaceutical Analysis,” vol. I, G. Szepesi (1990). A discussion of mass spectrometry is provided in “Remington: The Science and Practice of Pharmacy,” 20th Ed., D. Limmer, ed., pp. 636-639 (2000).
(§1) Radiometric profiles of metabolites following 120 min incubation of Compound A (50 μM) with CYP3A4, Human Liver Microsomes, and Insect Microsomes, all with a NADPH-generating system, are shown in FIGS. 1, 2, and 3, respectively. In these figures, the y-axis reflects radioactivity of the eluted species and has units of counts per minute, while the x-axis reflects time of elution and has units of minutes. Each peak represents one or more compounds, and each of the more significant peaks is labeled with the mass-to-charge ratio value (m/z) of that compound. Mass-to-charge ratios are measured by mass spectrometry.

[2] = Incubation of Compound A with pooled human liver microsomes and NADPH-generating system; assay type: in vitro ADME
Experimental: (§2) Compound C was prepared via a biotransformation from Compound A. In vitro incubations of Compound A (1, 5 and 50 μM) were performed with pooled human liver microsomes and CYP3A4 SUPERSOMES®. This radiolabel allowed tracking of all the metabolites of Compound A. For this procedure, Compound A was synthesized by inserting a ^14C in the 4 position as indicated in the ring member numbering scheme below.
(§3) Incubation mixtures contained cytochrome P450 (1 nmol/mL for human liver microsomes or 0.2 nmol/mL for CYP3A4), β-NADP^+ (1 mM), glucose-6-phosphate (5 mM), glucose-6-phosphate dehydrogenase (1.5 units/mL) and 3 mM magnesium chloride in 0.5 mL of 50 mM potassium phosphate buffer (pH 7.4). Prior to the addition of drug, incubation mixtures were pre-incubated for 3 min at about 37° C. […] Boiled human liver microsomes and incubations without NADPH served as negative control. […]
as §1, with “Each peak represents one or more compounds, and each of the more significant peaks is labeled with the mass-to-charge ratio value (m/z) of that compound.” left out

PDE 5 [3] = target: T1, PDE 5 (Homo sapiens, UniProt O76074); settings: disclosed in U.S. Ser. No. 09/940,760; cited from earlier work
CYP3A4 = target: T2, CYP3A4 (Homo sapiens, UniProt P08684); test: Incubation of Compound A with CYP3A4 SUPERSOMES and NADPH-generating system; assay type: in vitro ADME
T2 construct: purchased; host or cells: An insect cell host is inferred from the 'Insect Microsomes' control
T2 sequence (P08684 whole entry): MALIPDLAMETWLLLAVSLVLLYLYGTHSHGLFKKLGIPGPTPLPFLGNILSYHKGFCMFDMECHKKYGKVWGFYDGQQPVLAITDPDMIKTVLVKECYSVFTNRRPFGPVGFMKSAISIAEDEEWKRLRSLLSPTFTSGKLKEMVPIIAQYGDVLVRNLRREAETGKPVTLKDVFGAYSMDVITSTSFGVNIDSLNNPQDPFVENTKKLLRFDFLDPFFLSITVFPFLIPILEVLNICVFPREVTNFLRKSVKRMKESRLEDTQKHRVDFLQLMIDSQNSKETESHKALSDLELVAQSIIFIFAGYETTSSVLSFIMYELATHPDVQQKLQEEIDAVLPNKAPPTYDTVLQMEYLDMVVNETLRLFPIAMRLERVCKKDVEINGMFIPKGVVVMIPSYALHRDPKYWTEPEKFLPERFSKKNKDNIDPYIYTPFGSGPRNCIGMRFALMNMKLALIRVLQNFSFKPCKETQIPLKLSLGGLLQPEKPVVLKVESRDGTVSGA
Experimental: as §2, §3
as §1, with “Each peak represents one or more compounds, and each of the more significant peaks is labeled with the mass-to-charge ratio value (m/z) of that compound.” left out

[4] = Circulating metabolites after single oral administration of Compound A to humans; assay type: in vivo; settings: single administration of Compound A 100 mg PO
PDE 5 [5] = target: T1, PDE 5; test: PDE 5 inhibitory activity; assay type: biochemical; settings: target not stated at the place; PDE 5 from context

metabolite formed from Compound A (radiometric profile) ([2]; Compound A 50 μM, 120 min, Human Liver Microsomes, FIG. 2) | IC50 (PDE 5 [5]) | metabolite formed from Compound A (radiometric profile) (CYP3A4; Compound A 50 μM, 120 min, CYP3A4, FIG. 1) | Compound | metabolite formation [1] | extent of metabolism ([2]; 1, 5 and 50 μM, human liver microsomes 1 nmol/mL, NADPH-generating system) | PDE 5 inhibitory activity (PDE 5 [3]) | activity with respect to the formation of Compound C (CYP3A4; 50 μM Compound A, cDNA-expressed CYP3A4) | circulating metabolite in human [4]
– | – | – | CCn1c(=O)c2c(nc(N[C@@H]3CCC[C@H]3O)n2Cc2ccc(OC)c(Br)c2)n(CCO)c1=O [Compound A] | no major metabolite formation was observed | metabolized extensively | having PDE 5 inhibitory activity | exhibited the greatest activity | –
significant metabolite | 0.071 µM | significant metabolite | CCn1c(=O)c2c(nc(N)n2Cc2ccc(OC)c(Br)c2)n(CCO)c1=O [Compound C, 8-Amino-7-[(3-Bromo-4-Methoxyphenyl)Methyl]-1-Ethyl-3,7-Dihydro-3-(2-Hydroxyethyl)-1H-Purine-2,6-Dione] | – | – | – | – | one of the major circulating metabolites; also recorded: prominent circulating metabolite

— US7312223B2, “Metabolite of xanthine Phosphodiesterase 5 inhibitor and derivatives thereof useful for treatment of erectile dysfunction” (Schering Corporation, priority 2003, dated 2007)
